Source: patent US10793521B2, “Crystalline form II of dextral oxiracetam, preparation method therefor and use thereof” (CHONGQING RUNZE PHARMACEUTICAL COMPANY LIMITED, priority 2016, dated 2020)
Entries after “also recorded” stand apart in the source; their conditions may differ.

How the values were obtained:
Format in all cases: physicochemical
[1] = Dynamic vapor sorption (DVS) test with powder X-ray diffraction characterization
Experimental: The test parameters were given as follows: weighing: Ultra Digital Microbalance SMS Ultra Balance™; flow rate: N2, 200 sccm, System Control Software: DVS-Intrinsic control software ver. 1.0.3.1, Data Analysis Software: Isotherm (ISO) analysis suite. 22.4 mg of sample of crystalline form II of dextral oxiracetam was weighed for the test, dried at RH=0%, the mass was balanced to ensure removal of moisture adsorbed on the surface, then placed on metal sample tray, and dried at 0% RH for 2 h. The test was performed at a constant temperature of 25° C., and the relative humidity (RH %) was controlled to vary cyclically from 0% to 90% to 0% RH with a 10% gradient. The variation of the sample weight with humidity was measured, which was combined with powder X-ray diffraction characterization to observe the effect of humidity on crystalline form transformation of the sample.

[2] = Solubility in water
[3] = Accelerated test for crystalline form stability; conditions: 40° C.±2° C., relative humidity 75%±5%
Experimental: The accelerated test for crystalline form stability was performed in accordance with the provisions relating to the accelerated test of active pharmaceutical ingredients under “Guidelines for the Stability Test of Active Ingredient Pharmaceutical Ingredients and Pharmaceutical Preparations” of Pharmacopoeia 2010 Appendix XIXC. The crystalline form II of dextral oxiracetam was placed in a beaker and the test was carried out in a constant temperature and humidity chamber at a temperature of 40° C.±2° C. and a relative humidity of 75%±5%.

Question: For `NC(=O)CN1C[C@H](O)CC1=O` [dextral oxiracetam], which “crystalline form of the sample after humidity cycle” value ([1]; 25° C., relative humidity cycled 0% to 90% to 0% RH with a 10% gradient) is on record?
Answer: The value was “still the crystalline form II of dextral oxiracetam”.

Question: What about the “crystal transformation / stability to humidity” value ([1]; room temperature, relative humidity of 0-95%) of the same molecule?
Answer: The value was “do not undergo crystal transformation; also recorded: no crystal transformation occurs”.

Question: And the solubility [2]?
Answer: Its solubility is ≥ 100 mg/mL.

Question: And the “change in crystalline form” value ([3]; after 2 h)?
Answer: Its value is “no change”.

Question: And the “change in crystalline form” value ([3]; after 10 days)?
Answer: Its value is “no change”.

Question: What about the “change in crystalline form” value ([3]; after 15 days) of the same molecule?
Answer: Its value is “no change”.

Question: What about the “crystal transformation in accelerated stability test” value ([3]; between 2 h and 15 d) of the same molecule?
Answer: The value was “did not undergo crystal transformation”.
